Source: patent US4866206A, “2-Halomethyl derivatives of 2-amino acids” (Merrell Dow France et Cie, priority 1988, dated 1989)
Read-outs that look alike come from different tables or passages of the source.

Assays:
[1] = target: T1, rat liver ornithine decarboxylase (Rattus norvegicus, UniProt P09057); test: time-dependent inhibition of rat liver ODC (in vitro); assay type: biochemical
T1 construct: rat liver ornithine decarboxylase in vitro; from tissue; host or cells: rat liver
T1 sequence (P09057 1-461): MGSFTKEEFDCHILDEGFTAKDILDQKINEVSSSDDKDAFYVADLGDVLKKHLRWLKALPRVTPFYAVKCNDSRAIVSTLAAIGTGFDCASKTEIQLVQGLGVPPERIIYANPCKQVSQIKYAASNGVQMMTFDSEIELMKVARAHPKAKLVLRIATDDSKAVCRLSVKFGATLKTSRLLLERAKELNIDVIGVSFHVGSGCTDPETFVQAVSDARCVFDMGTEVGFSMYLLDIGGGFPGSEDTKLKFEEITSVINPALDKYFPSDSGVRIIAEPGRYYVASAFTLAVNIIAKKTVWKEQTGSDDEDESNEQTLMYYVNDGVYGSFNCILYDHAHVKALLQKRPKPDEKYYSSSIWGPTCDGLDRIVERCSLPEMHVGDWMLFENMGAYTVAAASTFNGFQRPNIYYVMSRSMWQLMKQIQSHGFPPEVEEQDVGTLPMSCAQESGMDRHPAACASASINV

[2] = target: T2, ornithine decarboxylase (Rattus norvegicus, UniProt P09057); test: ODC activity remaining in rat tissues after a single dose (in vivo); parameters: species or system rats
T2 construct: from tissue; host or cells: rat ventral prostate and thymus
T2 sequence (P09057 1-461): T1 sequence (P09057 1-461)
Description: The ODC inhibitory activity of a compound can be determined in vitro by the method described by B. Metcalf et al., J. Am. Chem. Soc., 100, 2551 (1978) and in vivo by the method of C. Danzin, Life Sciences, 24, 519 (1979).
2-Fluoromethyl-2,5-diaminopentanoic acid and 2-fluoromethyl-2,6-diaminohexanoic acid were tested for inhibition of ornithine decarboxylase in rats according to the procedure of C. Danzin et al., Life Sciences, 24, 519 (1979).

[3] = tested on: female mice; test: contragestational activity in mice; assay type: in vivo; conditions: for Resorption nodules gravid female / Viable feti gravid female: autopsy day 18
Description: 2-Fluoromethyl-2,5-diaminopentanoic acid (MFM) was tested for contragestational activity in mice according to the procedure of J. Fozard et al., Eur. J. Pharmacol., 65, 379 (1980).
In this experiment, the compound was given at the doses stated, subcutaneously (s.c.), every 6 hours starting at 12:00 on day 8 of gestation (4 doses). Animals were autopsied on day 18 and the numbers of viable feti and resorption nodules recorded.

[4] = tested on: prostatic growth in rats; test: effect on prostatic growth in rats; assay type: in vivo; conditions: for % Weight loss of prostate: oral administration for 3 days
Source text: Accordingly, the compounds of Formula I can be used as contragestational agents (abortifacients) in female animals when it is desired to terminate early pregnancy. The use of 2-fluoromethyl-2,5-diaminopentanoic acid, and derivatives thereof, as a contragestational agent is described and claimed in U.S. Pat. No. 4,309,442 of P. Bey and M. Jung. […] Danzin et al., Biochem. J., 202, 175 (1982). Accordingly, the compounds of Formula I can be used to treat benign prostatic hypertrophy. The use of 2-fluoromethyl-2,5-diaminopentanoic acid, and derivatives thereof, in the treatment of benign prostatic hypertrophy is described and claimed in the U.S. Pat. No. 4,330,559 of P. Bey and M. Jung.
2-Fluoromethyl-2,5-diaminopentanoic acid was tested for its effect on prostatic growth in rats according to the procedure of C. Danzin et al., Biochem. J., 202, 175 (1982).
(a) Administered dissolved in drinking water employed as only water source for the animals.

[5] = target: T3, P. aeruginosa ODC (Pseudomonas aeruginosa, UniProt Q9HVQ3); test: time-dependent inhibition of bacterial ODC (in vitro), P. aeruginosa; assay type: biochemical
T3 construct: 14CO2 release from ornithine
T3 sequence (Q9HVQ3 1-387): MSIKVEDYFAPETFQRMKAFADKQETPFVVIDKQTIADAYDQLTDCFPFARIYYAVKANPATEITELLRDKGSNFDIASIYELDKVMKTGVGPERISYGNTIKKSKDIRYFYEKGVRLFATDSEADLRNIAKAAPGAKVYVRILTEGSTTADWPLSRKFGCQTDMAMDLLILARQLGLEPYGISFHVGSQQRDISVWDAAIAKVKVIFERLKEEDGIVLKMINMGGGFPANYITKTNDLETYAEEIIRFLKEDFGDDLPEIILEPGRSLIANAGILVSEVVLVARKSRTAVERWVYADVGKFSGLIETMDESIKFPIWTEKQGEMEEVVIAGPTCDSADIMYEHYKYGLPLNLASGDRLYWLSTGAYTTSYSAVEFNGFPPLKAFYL
Description: (§1) 2-Fluoromethyl-2,5-diaminopentanoic acid (MFMO) was tested for in vitro inhibition of ornithine decarboxylase from Escherichia coli and from Pseudomonas aeruginosa according to the procedure described as follows:
(§2) Escherichia coli (M.R.C. 59) and Pseudomonas aeruginosa (A.T.C.C. 9027) were grown as described by Kallio et al., Biochem. J., 200, 69 (1981) in minimal medium [Davis et al., J. Bacteriol., 60, 17 (1950)] at 37° C. Cells were harvested by centrifugation (10 minutes at 10,000 g) and washed once with phosphate-buffered saline, pH 7.2 (0.125M NaCl, 10 mM Na2 HPO4, and 3 mM KH2 PO4). The cell pellet was suspended in 10 mM Tris/HCl (pH 7.5) containing 1 mM dithiothreitol and 0.1 mM EDTA and disrupted by sonication with a Branson Cell Disruptor 350 (5×30 sec, setting 3). Cell debris was removed by centrifugation at 25,000 g for 30 minutes and the supernatant (approximately 16 mg protein/ml), used for the measurement of ornithine decarboxylase, was stored frozen at -20° C. without appreciable loss of activity.
(§3) Ornithine decarboxylase activity was measured by the release of ^14 Co2. Assays contained 100 mM tris/HCl (pH 8.25 for E. coli and pH 7.5 for P. aeruginosa), 0.04 mM pyridoxal phosphate, 1mM dithiotheritol, 10 mM L-ornithine, 2.5 μCi D,L-[1-^14 C]ornithine and 80-120 μg bacterial protein in a total volume of 1 ml. […]
(§4) Time dependent irreversible inhibition of ornithine decarboxylase was determined according to the method of Kallio et al., Biochem. J., 200, 69 (1981). […] At selected times, 20 μl aliquots of the enzyme incubate were removed and transferred to the reaction flasks in which ODC activity was determined. […] The flasks were kept on ice until all time points were taken and then D,L-[1-^14 C]-ornithine was added and ODC activity was determined at 37° C. […]
(§5) Kinetic parameters for the inhibition of ODC were determined as described by Kitz, J. Biol. Chem., 237, 3245 (1962) as modified by Jung et al., Biochem. Biophys. […]

[6] = target: T4, E. coli ODC (Escherichia coli, UniProt P21169); assay type: cell-based
T4 sequence (P21169 whole entry): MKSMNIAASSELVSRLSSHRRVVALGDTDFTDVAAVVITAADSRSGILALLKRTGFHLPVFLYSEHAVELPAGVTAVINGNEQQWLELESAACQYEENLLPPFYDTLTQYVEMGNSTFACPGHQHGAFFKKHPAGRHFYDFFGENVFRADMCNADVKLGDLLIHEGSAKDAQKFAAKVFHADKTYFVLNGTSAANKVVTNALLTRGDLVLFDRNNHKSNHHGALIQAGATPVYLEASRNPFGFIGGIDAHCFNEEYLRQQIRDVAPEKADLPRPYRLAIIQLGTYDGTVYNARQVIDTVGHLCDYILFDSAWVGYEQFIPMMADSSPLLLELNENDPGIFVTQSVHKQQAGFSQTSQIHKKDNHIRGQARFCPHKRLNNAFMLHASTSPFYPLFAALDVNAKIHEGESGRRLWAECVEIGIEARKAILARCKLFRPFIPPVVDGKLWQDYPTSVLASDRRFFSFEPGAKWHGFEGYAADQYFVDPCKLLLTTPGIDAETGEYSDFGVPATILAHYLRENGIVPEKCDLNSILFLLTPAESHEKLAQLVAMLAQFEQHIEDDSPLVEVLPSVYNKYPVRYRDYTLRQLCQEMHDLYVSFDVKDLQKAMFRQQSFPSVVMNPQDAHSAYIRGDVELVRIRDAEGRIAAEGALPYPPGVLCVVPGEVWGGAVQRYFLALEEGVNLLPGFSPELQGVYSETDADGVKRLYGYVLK

[7] = target: T5, ODC of P. aeruginosa (Pseudomonas aeruginosa, UniProt Q9HVQ3); test: ODC inhibition in intact P. aeruginosa cells; assay type: cell-based; conditions: in words
T5 sequence (Q9HVQ3 1-387): T3 sequence (Q9HVQ3 1-387)
Source text: However, by itself, α-MFMO has no effect on cell growth. Thus, […] inhibitory activity is useful only when used in combination with agents which will block other routes of polyamine biosynthesis, e.g. with both (a) α-difluoromethyl arginine, which inhibits arginine decarboxylase, and (b) dicyclohexylammonium sulfate, which inhibits spermidine synthesis.

[8] = tested on: E. coli (M.R.C; 59); test: growth and polyamine content of E. coli cultures; assay type: cell-based; conditions: compound by itself
[9] = tested on: P. aeruginosa (A.T.C.C. 9027); test: growth and polyamine content of P. aeruginosa cultures; assay type: cell-based; conditions: compound by itself
[10] = target: T4, E. coli ODC; test: time-dependent inhibition of bacterial ODC (in vitro), E. coli; assay type: biochemical, Escherichia coli (M.R.C. 59); parameters: supernatant (approximately 16 mg protein/ml), used for the measurement of ornithine decarboxylase; endogenous in cells; host or cells: Escherichia coli M.R.C; 59, supernatant of sonicated cells
Description: as §1, §2, §3, §4, §5

[11] = concentration of compound which gives half-maximal rate of inhibition, time-dependent inhibition
[12] = half-life of inhibition at 10 μM inhibitor
[13] = half-life of inhibition at infinite concentration of inhibitor
[14] = 6 hours after single oral dose, 12.5 mg/kg
[15] = 6 hours after single oral dose, 25 mg/kg
[16] = 6 hours after single oral dose, 50 mg/kg
[17] = 6 hours after single oral dose, 100 mg/kg
[18] = 50 mg/kg s.c. every 6 hours from day 8 of gestation (4 doses)
[19] = 100 mg/kg s.c. every 6 hours from day 8 of gestation (4 doses)
[20] = 200 mg/kg s.c. every 6 hours from day 8 of gestation (4 doses)
[21] = 400 mg/kg s.c. every 6 hours from day 8 of gestation (4 doses)

SMILES: NCCCCC(N)(CCl)C(=O)O (stereo not drawn) [MCML, 2-chloromethyl-2,6-diaminohexanoic acid]
- T1/2 [1]: no apparent saturation
- t1/2 at 10 μM [1]: 62 min

SMILES: NCCCC(N)(CCl)C(=O)O (stereo not drawn) [MCMO, 2-chloromethyl-2,5-diaminopentanoic acid]
- K I [1, 11]: no apparent saturation
- t1/2 at 10 μM [1, 12]: 22 min
- T1/2 [1, 13]: no apparent saturation

SMILES: NCCCCC(N)(CF)C(=O)O (stereo not drawn) [MFML, 2-fluoromethyl-2,6-diaminohexanoic acid]
- Ki [1, 11]: 430 µM
- t1/2 at 10 μM [1, 12]: 88 min
- T1/2 [1, 13]: 2.0 min
- ODC Activity remaining in ventral prostate ([2]; single oral dose 200 mg/kg, 3 h): 66 ± 6 % Control
- ODC Activity remaining in ventral prostate ([2]; single oral dose 200 mg/kg, 6 h): 44 ± 10 % Control
- ODC Activity remaining in ventral prostate ([2]; single oral dose 200 mg/kg, 12 h): 74 ± 7 % Control

SMILES: NCCCC(N)(CF)C(=O)O (stereo not drawn) [MFMO, 2-Fluoromethyl-2,5-diaminopentanoic acid]
- Ki [1, 11]: 75 µM
- t1/2 at 10 μM [1, 12]: 14 min
- T1/2 [1, 13]: 1.6 min
- ODC Activity remaining in ventral prostate ([2]; 5 hours after single i.p. injection, 12.5 mg/kg): 70.5 ± 12.5 % Control
- ODC Activity remaining in ventral prostate ([2]; 5 hours after single i.p. injection, 25 mg/kg): 77.0 ± 10.5 % Control
- ODC Activity remaining in ventral prostate ([2]; 5 hours after single i.p. injection, 50 mg/kg): 57.0 ± 13.0 % Control
- ODC Activity remaining in ventral prostate ([2]; 5 hours after single i.p. injection, 100 mg/kg): 14.5 ± 10.0 % Control
- ODC Activity remaining in ventral prostate ([2]; 5 hours after single i.p. injection, 200 mg/kg): 15.5 ± 1.0 % Control
- ODC Activity remaining in thymus [2, 14]: 81 ± 6 % Control
- ODC Activity remaining in ventral prostate [2, 14]: 98 ± 18 % Control
- ODC Activity remaining in thymus [2, 15]: 93 ± 8 % Control
- ODC Activity remaining in ventral prostate [2, 15]: 67 ± 7 % Control
- ODC Activity remaining in thymus [2, 16]: 99 ± 5 % Control
- ODC Activity remaining in ventral prostate [2, 16]: 45 ± 7 % Control
- ODC Activity remaining in thymus [2, 17]: 87 ± 6 % Control
- ODC Activity remaining in ventral prostate [2, 17]: 44 ± 6 % Control
- Resorption nodules gravid female [3, 18]: 3.3 ± 1.1
- Viable feti gravid female [3, 18]: 9.1 ± 1.5
- Resorption nodules gravid female [3, 19]: 2.3 ± 0.6
- Viable feti gravid female [3, 19]: 12.7 ± 0.9
- Resorption nodules gravid female [3, 20]: 4.2 ± 1.2
- Viable feti gravid female [3, 20]: 9.2 ± 1.5
- Resorption nodules gravid female [3, 21]: 8.9 ± 1.9
- Viable feti gravid female [3, 21]: 5.4 ± 1.5
- interruption of embryogenesis ([3]; female mice, method of Fozard): capable of interrupting embryogenesis
- % Weight loss of prostate ([4]; 3.75 g/l in drinking water): -10%
- % Weight loss of prostate ([4]; 7.5 g/l in drinking water): -14%
- % Weight loss of prostate ([4]; 15 g/l in drinking water): -19%
- weight of the ventral prostate ([4]; rats, method of Danzin): significant decrease
- Ki ([5]; P. aeruginosa ODC, concentration giving half-maximal rate of inhibition, 20° C., pH 7.5): 300 µM
- T1/2 ([5]; P. aeruginosa ODC, half-life at infinite concentrations): 12 min
- inhibition of ODC of P. aeruginosa in vitro ([5]; in vitro, in words): inhibit
- inhibition at 2000 µM ([6]; bacteria grown in the presence of 2 mM of the compound): 99%
- inhibition of ODC of E. coli in intact cells ([6]; intact cells, in words): inhibit
- inhibition of ODC of P. aeruginosa in intact cells [7]: inhibit
- effect on cell growth [8]: no effect
- effect on cell growth [9]: no effect
- Ki ([10]; E. coli ODC, concentration giving half-maximal rate of inhibition, 20° C., pH 8.25): 360 µM
- T1/2 ([10]; E. coli ODC, half-life at infinite concentrations): 12 min
- inhibition of ODC of E. coli in vitro ([10]; in vitro, in words): inhibit
